Like-named read-outs stand apart in the source and are kept apart here.
Tests used:
purified PhnO protein = target: T1, purified PhnO protein (Escherichia coli, UniProt P16691, P2A); assay: AMPA transacylase acyl-CoA acyl donor specificity, HPLC; assay type: biochemical, E. coli; conditions: for [^14C]-AMPA % Conversion: 5 minutes 30° C.; for % Activity: 1 mM acetyl-CoA = 100% reference
T1 construct: made in house; host or cells: E. coli JM101 carrying pMON15032 (recA promoter, nalidixic acid induction)
Protocol: PhnO was purified from a one liter Luria Bertani broth culture of E. coli JM101 expressing a recombinant phnO gene from pMON15032 after nalidixic acid induction for three hours at 37° C. Cells were harvested by centrifugation and resuspended in 40 ml cold Tris buffer (0.1 M Tris-HCl pH 8) and placed on ice. The cell suspension was brought to 1 mM DTT and 0.5 mM PMSF. The suspension was lysed by 2 passages through a prechilled French pressure cell at 1,100 psi, centrifuged at 12,000 g (10,000 rpm in an Sorvall SA600 rotor) for 40 min at 4° C., then placed on ice. The cleared supernatants were poured into fresh 15 ml polypropylene tubes. The samples were split again into two equal portions and maintained at −80° C. until used further for purification of PhnO protein. 20 microliters of the soluble fraction was assayed for enzyme activity using the HPLC method described above in Example 2, except after terminating the assay with acid addition, the sample was stored at −80° C. A Sephacryl S200 column was prepared according to the manufacturers' instructions and equilibrated with a solution containing 20 mM Tris pH 8.0 and 0.5 mM MgCl2. The entire total soluble extract was layered over the top of the column bed after thawing on ice. Forty 9 ml fractions were collected from the column eluate, and thirty microliters of each fraction was analyzed by western blot using anti-PhnO antiserum after resolution on a 15% SDS-PAGE gel. Also, thirty microliters of each fraction was analyzed for AMPA acyl transferase activity using the method described in Example 2. […] These were represented by fractions 7 through 19 in this example, and were combined into a 100 ml volume, distributed into […] each containing 10 ml volumes, and stored at −80° C. for further use.
Anion exchange chromatography was used to determine the elution pattern of PhnO away from other contaminating proteins that co-elute during the Sephacryl S200 fractionation. One tube from the combined PhnO positive fractions was thawed on ice and injected into a 5/5 Mono-Q column pre-equilibrated with buffers A (one liter of 20 mM Tris-HCl pH 8.0 Mili-Q distilled deionized water) and B (one liter of 20 mM Tris-HCl pH 8.0, 1 M NaCl). The sample containing PhnO active protein was injected into the column and one milliliter fractions were collected. The column was washed for five minutes with a flow rate of 1.8 ml per minute Buffer A after loading the PhnO containing sample. At five minutes, Buffer B was added to the flow volume at 0.5 ml per minute for four minutes. Buffer B was ramped up to 22% of the flow volume at 10 minutes, 30% at 12 minutes, 36% at 13 minutes, 41% at 14 minutes, 46% at 15 minutes, 74% at 16 minutes, and 100% at 16 minutes through 22 minutes, at which point Buffer B flow was terminated and Buffer A was reinitiated at 100% to equilibrate the column. Ten microliter volumes from individual fractions collected from the Mono-Q column were analyzed by western blot and for transacylase activity as described in Example 2. […] Samples of this purified PhnO protein were used to determine enzyme's acyl donor substrate specificity.
Enzyme reactions were prepared as follows. […] A assay premix was prepared from which 45 microliters was used in each 100 microliter reaction. This 45 microliter premix sample consisted of 40 microliters distilled and deionized water, 2 microliters of 50 mM MgCl2, and 3 microliters of 1.3 mM [^14C]-AMPA (115,392 dpm per microliter). Reactions were initiated by mixing 40 microliters of 125 mM Tris-HCl pH 8.0, […] protein sample and 10 microliters acyl-CoA acyl donor compound in a microcentrifuge tube at room temperature. Each acyl-CoA acyl donor compound was prepared as a stock solution of 1 mM, 5 mM or 10 mM stocks. Each tube was then mixed with 45 microliters of the assay premix containing the [^14C]-AMPA […] substrate, mixed gently and transferred to a 30° C. water bath for 5 minutes. […]

PhnO enzyme = PhnO enzyme (Escherichia coli, UniProt P16691, P2A)
Protocol: The ability of the enzyme to produce N-acetyl AMPA from a mixture containing acetyl-CoA and AMPA across a range of pH values was determined. The reactions were carried out in MES/MOPS/Tricine buffer equilibrated to a pH value from 4.5 to 9.0, with actual pH values ranging from 5.2 through 9.0. Briefly, 95 microliters of an appropriate buffer was mixed with 100 microliters of 2×assay mix as described in example 4, and 5 microliters of desalted E. coli lysate containing approximately 400 ng/microliter PhnO protein.

## C/C=C(\C)C(=O)SCCNC(=O)CCNC(=O)[C@H](O)C(C)(C)COP(=O)(O)OP(=O)(O)OC[C@H]1O[C@@H](n2cnc3c(N)ncnc32)[C@H](O)[C@@H]1OP(=O)(O)O [Tiglyl-CoA, tiglyl-CoA]
Purified PhnO protein; acyl donor 0.1 mM
  [^14C]-AMPA % Conversion: 0.00%
  % Activity: 0.00%
Purified PhnO protein; acyl donor 0.5 mM
  [^14C]-AMPA % Conversion: 0.00%
  % Activity: 0.00%
Purified PhnO protein; acyl donor 1 mM
  [^14C]-AMPA % Conversion: 0.99%
  % Activity: 0.99%

## CCCCC(=O)SCCNC(=O)CCNC(=O)[C@H](O)C(C)(C)COP(=O)(O)OP(=O)(O)OC[C@H]1O[C@@H](n2cnc3c(N)ncnc32)[C@H](O)[C@@H]1OP(=O)(O)O [Valeryl-CoA, n-valeryl-CoA]
Purified PhnO protein; acyl donor 0.1 mM
  [^14C]-AMPA % Conversion: 0.24%
  % Activity: 0.24%
Purified PhnO protein; acyl donor 0.5 mM
  [^14C]-AMPA % Conversion: 0.00%
  % Activity: 0.00%
Purified PhnO protein; acyl donor 1 mM
  [^14C]-AMPA % Conversion: 0.33%
  % Activity: 0.33%

## CCNC(=O)CCNC(=O)[C@H](O)C(C)(C)COP(=O)(O)OP(=O)(O)OC[C@H]1O[C@@H](n2cnc3c(N)ncnc32)[C@H](O)[C@@H]1OP(=O)(O)O [Desulfo-CoA, desulfo-CoA]
Purified PhnO protein; acyl donor 0.1 mM
  [^14C]-AMPA % Conversion: 0.95%
  % Activity: 0.95%
Purified PhnO protein; acyl donor 0.5 mM
  [^14C]-AMPA % Conversion: 1.25%
  % Activity: 1.25%
Purified PhnO protein; acyl donor 1 mM
  [^14C]-AMPA % Conversion: 0.52%
  % Activity: 0.52%

## C/C=C/C(=O)SCCNC(=O)CCNC(=O)[C@H](O)C(C)(C)COP(=O)(O)OP(=O)(O)OC[C@H]1O[C@@H](n2cnc3c(N)ncnc32)[C@H](O)[C@@H]1OP(=O)(O)O [Crotonoyl-CoA, crotonoyl-CoA]
Purified PhnO protein; acyl donor 0.1 mM
  [^14C]-AMPA % Conversion: 0.80%
  % Activity: 0.80%
Purified PhnO protein; acyl donor 0.5 mM
  [^14C]-AMPA % Conversion: 0.00%
  % Activity: 0.00%
Purified PhnO protein; acyl donor 1 mM
  [^14C]-AMPA % Conversion: 0.00%
  % Activity: 0.00%

## CC(C)(COP(=O)(O)OP(=O)(O)OC[C@H]1O[C@@H](n2cnc3c(N)ncnc32)[C@H](O)[C@@H]1OP(=O)(O)O)[C@@H](O)C(=O)NCCC(=O)NCCSC(=O)CCC(=O)O [Succinyl-CoA, succinyl-CoA]
Purified PhnO protein; acyl donor 0.1 mM
  [^14C]-AMPA % Conversion: 5.06%
  % Activity: 5.06%
Purified PhnO protein; acyl donor 0.5 mM
  [^14C]-AMPA % Conversion: 3.38%
  % Activity: 3.38%
Purified PhnO protein; acyl donor 1 mM
  [^14C]-AMPA % Conversion: 1.56%
  % Activity: 1.56%

## CCC(=O)SCCNC(=O)CCNC(=O)[C@H](O)C(C)(C)COP(=O)(O)OP(=O)(O)OC[C@H]1O[C@@H](n2cnc3c(N)ncnc32)[C@H](O)[C@@H]1OP(=O)(O)O [Propionyl-CoA, n-propionyl-CoA]
Purified PhnO protein; acyl donor 0.1 mM
  [^14C]-AMPA % Conversion: 78.2%
  % Activity: 78.2%
Purified PhnO protein; acyl donor 0.5 mM
  [^14C]-AMPA % Conversion: 97.8%
  % Activity: 97.8%
Purified PhnO protein; acyl donor 1 mM
  [^14C]-AMPA % Conversion: 100.00%
  % Activity: 100.00%

## CC(C)(COP(=O)(O)OP(=O)(O)OC[C@H]1O[C@@H](n2cnc3c(N)ncnc32)[C@H](O)[C@@H]1OP(=O)(O)O)[C@@H](O)C(=O)NCCC(=O)NCCSC(=O)CCCC(=O)O [Glutaryl-CoA, glutaryl-CoA]
Purified PhnO protein; acyl donor 0.1 mM
  [^14C]-AMPA % Conversion: 0.81%
  % Activity: 0.81%
Purified PhnO protein; acyl donor 0.5 mM
  [^14C]-AMPA % Conversion: 0.00%
  % Activity: 0.00%
Purified PhnO protein; acyl donor 1 mM
  [^14C]-AMPA % Conversion: 0.57%
  % Activity: 0.57%

## CC(C)C(=O)SCCNC(=O)CCNC(=O)[C@H](O)C(C)(C)COP(=O)(O)OP(=O)(O)OC[C@H]1O[C@@H](n2cnc3c(N)ncnc32)[C@H](O)[C@@H]1OP(=O)(O)O [Isobutyryl-CoA, isobutyryl-CoA]
Purified PhnO protein; acyl donor 0.1 mM
  [^14C]-AMPA % Conversion: 2.10%
  % Activity: 2.10%
Purified PhnO protein; acyl donor 0.5 mM
  [^14C]-AMPA % Conversion: 0.20%
  % Activity: 0.20%
Purified PhnO protein; acyl donor 1 mM
  [^14C]-AMPA % Conversion: 0.00%
  % Activity: 0.00%

## CC(C(=O)O)C(=O)SCCNC(=O)CCNC(=O)[C@H](O)C(C)(C)COP(=O)(O)OP(=O)(O)OC[C@H]1O[C@@H](n2cnc3c(N)ncnc32)[C@H](O)[C@@H]1OP(=O)(O)O (stereo partly shown) [Methylmalonyl-CoA, methylmalonyl CoA]
Purified PhnO protein; acyl donor 0.1 mM
  [^14C]-AMPA % Conversion: 1.11%
  % Activity: 1.11%
Purified PhnO protein; acyl donor 0.5 mM
  [^14C]-AMPA % Conversion: 2.08%
  % Activity: 2.08%
Purified PhnO protein; acyl donor 1 mM
  [^14C]-AMPA % Conversion: 2.21%
  % Activity: 2.21%

B1: PhnO: AMPA acyltransferase protein encoded by the phnO gene within the E. coli phn operon (protein)
chain: MAACELRPATQYDTDAVYALICELKQAEFDHHAFRVGFNANLRDPNMRYHLALLDGEVVGMIGLHLQFHLHHVNWIGEIQELVVMPQARGLNVGSKLLAWAEEEARQAGAEMTELSTNVKRHDAHRFYLREGYEQSHFRFTKAL
PhnO enzyme; AMPA and acetyl-CoA as substrates
  pH of optimum PhnO transacylase activity: ~8.0 pH
PhnO enzyme; Buffer pH 5.0
  N-Acetyl CoA: 222 nmol
  Velocity: 22.2 nmole/min/microgram
PhnO enzyme; Buffer pH 5.0 (mock reaction pH 5.23)
  % Turnover: 3.7%
PhnO enzyme; Buffer pH 5.5
  N-Acetyl CoA: 234 nmol
  Velocity: 23.4 nmole/min/microgram
PhnO enzyme; Buffer pH 5.5 (mock reaction pH 5.62)
  % Turnover: 3.9%
PhnO enzyme; Buffer pH 6.0
  N-Acetyl CoA: 252 nmol
  Velocity: 25.2 nmole/min/microgram
PhnO enzyme; Buffer pH 6.0 (mock reaction pH 5.92)
  % Turnover: 4.2%
PhnO enzyme; Buffer pH 6.5
  N-Acetyl CoA: 798 nmol
  Velocity: 79.8 nmole/min/microgram
PhnO enzyme; Buffer pH 6.5 (mock reaction pH 6.47)
  % Turnover: 13.3%
PhnO enzyme; Buffer pH 7.0
  N-Acetyl CoA: 1620 nmol
  Velocity: 162.0 nmole/min/microgram
PhnO enzyme; Buffer pH 7.0 (mock reaction pH 7.0)
  % Turnover: 27.0%
PhnO enzyme; Buffer pH 7.5
  N-Acetyl CoA: 1920 nmol
  Velocity: 192.0 nmole/min/microgram
PhnO enzyme; Buffer pH 7.5 (mock reaction pH 7.48)
  % Turnover: 32.0%
PhnO enzyme; Buffer pH 8.0
  N-Acetyl CoA: 2058 nmol
  Velocity: 205.8 nmole/min/microgram
PhnO enzyme; Buffer pH 8.0 (mock reaction pH 8.05)
  % Turnover: 34.3%
PhnO enzyme; Buffer pH 8.5
  N-Acetyl CoA: 2010 nmol
  Velocity: 201.0 nmole/min/microgram
PhnO enzyme; Buffer pH 8.5 (mock reaction pH 8.46)
  % Turnover: 33.5%
PhnO enzyme; Buffer pH 9.0
  N-Acetyl CoA: 2034 nmol
  Velocity: 203.4 nmole/min/microgram
PhnO enzyme; Buffer pH 9.0 (mock reaction pH 9.0)
  % Turnover: 33.9%

From patent US7554012B2, “Plants and plant cells exhibiting resistance to AMPA, and methods for making the same” (priority 1998, dated 2009)
